Among the test systems are BT-549; DLD-1; M19-MEL; DMS-273; LXFL 529; XF498; HOP-18; DMS-114.
Assay in all cases: inhibition of tumour cell growth, NCI panel, 48 h

Results on 58 molecules are retold here after ChEMBL document CHEMBL1201862, “PubChem BioAssay data set” (2004).

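Tested at 5 concentrations; 48 h exposure; 96-well plates; endpoints linearly interpolated, else capped at highest concentration. GI50 marks 50% less growth.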 Calls of active or inactive are those of the source. Rule as the data show it: active = GI50 up to about 1.1 µM and inactive = higher.

Turning to `CC(=O)Nc1ccc(S(=O)(=O)N=S(C)C)cc1`, the GI50 in the experiment with BT-549 is > 100 µM (inactive).
On the same count and under the same terms, the result for `O=C(O)C(Cc1cccs1)C(=O)O` reads > 100 µM (inactive); that for `Cn1ncc2c(Nc3cccc(Cl)c3)nc(Nc3cccc(Cl)c3)nc21`, 21.8 µM (inactive).
In the case of `Cc1c(Cl)c(S(N)(=O)=O)cc(S(N)(=O)=O)c1NC(=O)c1ccc(Cl)cc1`, in the experiment on BT-549, the GI50 was > 100 µM (inactive).
Take `ON(CCc1ccccn1)Cc1ccccc1`: the GI50 in the experiment with BT-549 was > 100 µM (inactive).
On the same count and under the same terms, the result for `O=C(O)c1cccc(C(=O)O)c1[S+]([O-])Cc1ccccc1` (centres undefined) reads > 100 µM (inactive); that for `O=C1NC(=S)N/C1=C\c1cccs1`, > 100 µM (inactive).
The same measure, in the same setting: the result for `COC(=O)/C=C1/OC(c2ccccc2)=CC1=O` reads 17.7 µM (inactive).
The same measure, in the same setting: the result for `CCC1(CC)C(=O)N(C(=O)c2ccc(Cl)cc2)N(C(=O)c2ccccc2Cl)C1=O` reads 67.9 µM (inactive); that for `O=C(O[C@H](/C=C/c1ccccc1)P1(=O)N(Cc2ccccc2)[C@H]2CCCC[C@@H]2N1Cc1ccccc1)c1ccccc1`, 5.56 µM (inactive); that for `C=C1C2CC[C@@](C)(O)C2[C@H]2OC(=O)C(=C)[C@@H]2C[C@H]1O` (some centres undefined), 10.3 µM (inactive).
For the molecule `C1CSCCSCCCSCCSCCCSCCSCCCSCCSC1`, in the experiment with BT-549, the GI50 is > 100 µM (inactive).
On to `CCC(CC)NC1=C(NC(C)=O)C(=O)c2ccccc2C1=O`, for which the GI50 in the experiment on DLD-1, with M19-MEL, in the experiment on DMS-273, with LXFL 529 and in the experiment with XF498 was > 50 µM (inactive) each time.
As to `C=CCCC(C)N(C(=O)OC(C)(C)C)S(=O)(=O)c1ccc(C)cc1` (centres undefined), the GI50 in the experiment on DLD-1, in the experiment on DMS-273, in the experiment on LXFL 529 and in the experiment with XF498 was > 100 µM (inactive) each time.
For the molecule `CCN(CC)CCNc1ccc(C)c2sc3ccc(O)cc3c(=O)c12`, the GI50 in the experiment on HOP-18 was 1.34 µM (inactive); in the experiment on DLD-1, 1.66 µM (inactive); in the experiment with M19-MEL, 1.1 µM (active); in the experiment on DMS-273 it was 0.162 µM (active); in the experiment on DMS-114, 0.982 µM (active); in the experiment with LXFL 529, 1.28 µM (inactive). Further, the GI50 in the experiment with XF498 was 1.2 µM (inactive).
With `NC(CCCC(N)P(=O)(O)c1ccccc1)P(=O)(O)c1ccccc1` (centres undefined), the GI50 in the experiment with HOP-18, in the experiment on DLD-1, in the experiment on M19-MEL, with DMS-273, in the experiment with DMS-114 and in the experiment on LXFL 529 was > 261 µM (inactive) each time. Further, the GI50 with XF498 was > 261 µM (inactive).
As for `CCOC(=O)/C(=C/c1ccc(N(C)C)cc1)N(CC)CC`, the GI50 in the experiment on M19-MEL was 24.6 µM (inactive); in the experiment on DMS-114, 54 µM (inactive); in the experiment with LXFL 529, 34.6 µM (inactive); with XF498, > 100 µM (inactive).
`CC(=O)C1(/N=N/c2ccc(S(N)(=O)=O)cc2)CCOC1=O` (centres undefined): the GI50 in the experiment with BT-549 is > 100 µM (inactive).
As for `Cc1cccc(NC(=O)C(=O)C2C(=O)NC(=O)NC2=O)c1C`, the GI50 in the experiment with HOP-18, in the experiment with DLD-1, in the experiment on M19-MEL, in the experiment with DMS-273, with DMS-114 and in the experiment on LXFL 529 was > 100 µM (inactive) each time.
Take `Cc1ccc(N2CN3OC(=O)N(c4ccccc4)[C@@]3(c3ccccc3)C2)cc1`: the GI50 in the experiment on BT-549 was 50.4 µM (inactive).
Still for that read-out and setting: the result for `COc1ccc(NC(=O)C(C#N)=C(SC)SC)cc1` reads > 100 µM (inactive); that for `CC1=C(C(=O)NC2CCCCC2)CC(C(=O)NC2CCCCC2)=C(C)N1`, > 100 µM (inactive).
As to `O=C1C(=O)C2(CC1S(=O)(=O)c1ccccc1)c1ccccc1-c1ccccc12` (centres undefined), the GI50 with HOP-18 is > 10 µM (inactive); in the experiment with DLD-1, 24.8 µM (inactive); with DMS-273, 19.5 µM (inactive); with DMS-114, 22 µM (inactive); in the experiment on LXFL 529, 16.3 µM (inactive).
Regarding `COC1/C=C(C)/C=C/C(C)/C=C/C(=O)OC(/C(C)=C/C=C(\C)CNC(=O)[C@H](CO)NC=O)C(C)/C=C/C=C/C(OC)CC/C=C(C)/C=C/C1` (some centres undefined), the GI50 with BT-549 is 0.0581 µM (active).
On to `O=C(c1ccccc1)c1c(-c2ccccc2)[nH]n(-c2ccc([N+](=O)[O-])cc2)c(=O)c1=O`, for which the GI50 with BT-549 was 27.6 µM (inactive).
On the same count and under the same terms, the result for `CCOC(=O)C1=COC(C)(C)CC1=O` reads > 100 µM (inactive); that for `Oc1ccc2ccccc2c1OCc1nnc(CCCCCCCCc2nnc(COc3c(O)ccc4ccccc34)o2)o1`, > 100 µM (inactive); that for `N#CC(C#N)=C1C(C#N)=C(N)NC12OCCO2`, > 100 µM (inactive).
Same read-out and setting: the result for `O=C1C(=O)c2c(oc(=O)c3ccccc23)-c2ccccc21` reads 11.7 µM (inactive); that for `Cc1ccc2c(c1C)C(=O)/C(=C/c1ccccc1C(=O)O)C2`, 20.7 µM (inactive); that for `COC(=O)CCc1cc(O)c2c(c1)C(C(=O)OC)C(c1ccc(O)c(O)c1)O2` (centres undefined), 12.5 µM (inactive).
Same read-out and setting: the result for `CCCN(CCC)C(=S)N/N=C(/C)c1ccccc1O` reads 5.25 µM (inactive).
On to `COc1ccc2cc(CNCCCCCCNCc3ccc4cc(OC)ccc4c3)ccc2c1`, for which the GI50 in the experiment with BT-549 was 1.72 µM (inactive).
Still for that read-out and setting: the result for `CCN1CCCc2cc3c(C(F)(F)F)cc(=O)oc3cc21` reads 58.2 µM (inactive).
The same measure, in the same setting: the result for `NNC(=S)N/N=C(\C(=O)Nc1cccc(O)c1)C1C(=O)NC(=S)NC1=O` reads > 100 µM (inactive).
In the case of `O=C(Nc1ccccc1SC(/C=C/NNC1=NN=C(c2ccccc2)C(c2ccccc2)N1)c1ccccc1)c1ccc(Cl)cc1Cl` (centres undefined), the GI50 is 49.2 µM (inactive) in the experiment with DLD-1; 44.3 µM (inactive) in the experiment on M19-MEL; 41.6 µM (inactive) with DMS-273; 45.1 µM (inactive) in the experiment with DMS-114; > 10 µM (inactive) in the experiment with XF498.
In the case of `C/C(=N\Nc1nc2ccccc2s1)c1ncccn1`, the GI50 with BT-549 was 0.346 µM (active).
Still for that read-out and setting: the result for `COc1cccc(C2c3cc4c(cc3OC(NNS(=O)(=O)c3ccc(C)cc3)C2C)OCO4)c1OC` (centres undefined) reads 2.2 µM (inactive); that for `CCCC(=O)Oc1c2ccsc2c(OC(=O)CCC)c2ccsc12`, 1.35 µM (inactive); that for `COC(=O)[C@]12CC[C@H]3CN(C(=O)OCc4ccccc4)[C@H]([C@H]31)[C@H](c1ccccc1)N2`, 85.5 µM (inactive).
On the same count and under the same terms, the result for `O=C(O)[C@@H]1[C@H](C(=O)O)[C@H](C(=O)O)C[C@@H]1C(=O)O` reads > 100 µM (inactive); that for `CC(C)N(C(=O)C12C3(C(=O)OC(C)(C)C)C4C5(C#N)C3C1(C(=O)OC(C)(C)C)C5C42C(=O)OC(C)(C)C)C(C)C` (centres undefined), > 100 µM (inactive); that for `CC#CCCCC1(C)CCNC1=S` (centres undefined), > 10 µM (inactive).
On the same count and under the same terms, the result for `O=c1c2ccccc2n2n1Cc1ccccc1C2` reads > 100 µM (inactive).
With `CC(=O)OC12C=CC(=O)N1c1ccccc1C(=O)O2` (centres undefined), the GI50 with HOP-18, with DLD-1, with M19-MEL, in the experiment with DMS-273, in the experiment on LXFL 529 and in the experiment on XF498 was > 100 µM (inactive) throughout.
As to `CCOC(=O)C(Cl)(NC(=O)c1c(F)c(F)c(F)c(F)c1F)C(F)(F)F` (centres undefined), the GI50 with BT-549 was > 100 µM (inactive).
Still for that read-out and setting: the result for `CSc1c(C#N)c(N)n(-c2ccc(C)cc2)c(=O)c1C#N` reads > 100 µM (inactive).
On to `CCc1c(-c2coc(CC/C(C)=C/c3ccccc3)n2)oc(OC)c(C)c1=O`, for which the GI50 was > 57.3 µM (inactive) in the experiment with HOP-18; 26.8 µM (inactive) in the experiment with DLD-1; 31.8 µM (inactive) with M19-MEL; 10.1 µM (inactive) in the experiment with DMS-273; < 0.01 µM (active) in the experiment with DMS-114; 5.96 µM (inactive) in the experiment on LXFL 529. Also, the GI50 in the experiment with XF498 is 17.7 µM (inactive).
`CC(C)=CCC/C(C)=C/CC/C(C)=C/CC(CO)N(C)CC/C=C(\C)CCC=C(C)C` (centres undefined): the GI50 in the experiment on BT-549 was 14.1 µM (inactive).
On the same count and under the same terms, the result for `c1ccc2[nH]c3[nH]c4[nH]c5ccccc5[nH]c4[nH]c3[nH]c2c1` reads > 100 µM (inactive); that for `CC(=O)C(=CNc1c(C)n(C)n(-c2ccccc2)c1=O)C(C)=O`, > 100 µM (inactive).
Same read-out and setting: the result for `CC(C)C1=CC2=C(C(=O)C1=O)C13CCCC(C)(C)C1CC2OC3=O` (centres undefined) reads 16.8 µM (inactive).
Take `Cc1cc(NS(=O)(=O)c2ccc(Nc3c4ccccc4nc4c(C(=O)NCCN(C)C)cccc34)cc2)no1`: the GI50 in the experiment with DLD-1 is 11.8 µM (inactive); in the experiment with M19-MEL it was 12.5 µM (inactive); in the experiment with DMS-273, 2.86 µM (inactive); in the experiment with DMS-114, 0.713 µM (active); in the experiment on LXFL 529, 3.6 µM (inactive); in the experiment with XF498, 18.3 µM (inactive).
In the case of `C=CC1(C)CCC(C(C)C(=O)C(C=C(C)C)OC(C)=O)C12C(=O)Oc1ccccc1C2=O` (centres undefined), the GI50 is 95.3 µM (inactive) in the experiment with HOP-18; 54.5 µM (inactive) with DLD-1; 26.2 µM (inactive) in the experiment with M19-MEL; 23.4 µM (inactive) with DMS-273; 26 µM (inactive) in the experiment on DMS-114; 37.8 µM (inactive) in the experiment on LXFL 529. Moreover, the GI50 in the experiment with XF498 is 54 µM (inactive).
For the molecule `CCC(C)C1NC(=O)C(NC(=O)C(CC(C)C)N(C)C(=O)[C@@H]2CC(O)CN2C(=O)[C@H](C)O)C(C)OC(=O)[C@H](Cc2ccc(OC)cc2)N(C)C(=O)[C@@H]2CCCN2C(=O)[C@H](CC(C)C)NC(=O)C(C)C(=O)[C@H](C(C)C)OC(=O)CC1O` (some centres undefined), the GI50 in the experiment with BT-549 is 0.189 µM (active).
Take `COC(=O)C1[C@@H](C(=O)OC)C12C=Cc1ccccc1C=C2` (some centres undefined): the GI50 in the experiment with DLD-1 was > 100 µM (inactive); with M19-MEL it was > 100 µM (inactive); in the experiment with DMS-273 it was > 100 µM (inactive); with DMS-114 it was > 100 µM (inactive); with LXFL 529 it was > 100 µM (inactive); with XF498 it was 51.6 µM (inactive).
`COC(=O)C1C(=O)O[C@@H](c2ccc(OC)cc2OC)C1C(=O)OC` (some centres undefined): the GI50 in the experiment on HOP-18, in the experiment with DLD-1, with M19-MEL, in the experiment with DMS-273, in the experiment with DMS-114 and in the experiment with LXFL 529 was > 100 µM (inactive) in each case. For the same molecule, the GI50 with XF498 was > 100 µM (inactive).
Regarding `CC1C=C[C@H](Sc2ccccc2)CC[C@@]1(C)O` (some centres undefined), the GI50 is > 100 µM (inactive) in the experiment with DLD-1, > 100 µM (inactive) in the experiment on M19-MEL, 55.8 µM (inactive) with DMS-114 and 99.3 µM (inactive) in the experiment on LXFL 529.
